In the experiment the target is T1, CX3CR1 (Homo sapiens, UniProt P49238).
T1 construct: expressed in transfected cells; host or cells: B300 cells
T1 sequence (P49238 1-355): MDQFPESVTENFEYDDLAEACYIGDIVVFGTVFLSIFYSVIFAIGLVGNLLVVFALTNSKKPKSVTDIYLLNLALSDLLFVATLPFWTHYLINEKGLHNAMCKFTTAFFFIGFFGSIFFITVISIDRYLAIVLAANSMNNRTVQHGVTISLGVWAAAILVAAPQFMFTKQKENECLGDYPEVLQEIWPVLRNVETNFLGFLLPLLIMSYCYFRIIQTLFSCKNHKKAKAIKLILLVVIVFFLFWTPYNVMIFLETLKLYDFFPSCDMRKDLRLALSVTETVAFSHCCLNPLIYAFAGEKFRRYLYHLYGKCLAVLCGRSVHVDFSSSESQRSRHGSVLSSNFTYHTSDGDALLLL
Briefly: Inhibition of cell migration in fractalkine-induced chemotaxis assay. Conditions: fractalkine-induced (0.3 nM) migration of CX3CR1-expressing B300 cells; preincubated with test compound for 30 minutes; Transwell, 3.5 hours at 37°C. In kind it is cell-based. How it is done:
The inhibitory effects of the example compounds on fractalkine-induced cell migration were examined using CX3CR1-transfected B300 cells
After equilibrating the Transwell plate (24-well clusters, pore size: 5 µm, manufactured by Corning Incorporated), a fractalkine solution (0.3 nM, manufactured by R&D Systems, Inc.) was added to the lower wells. CX3CR1-expressing B300 cells which were preincubated with the test compound (0.001, 0.003, 0.01 or 0.03 µM) for 30 minutes were placed in the upper layer wells, followed by incubation under the condition of 5% CO2 for 3.5 hours at 37°C. The number of cells migrated to the lower wells was evaluated using CellTiter (manufactured by Promega Corporation).
The inhibitory rate of the test compound on fractalkine-induced cell migration was calculated by the following formula, where [A] is the number of migrated cells in the presence of both fractalkine and the test compound, [B] is the number of migrated cells in the presence of fractalkine and in the absence of the test compound, and [C] is the number of migrated cells in the absence of both fractalkine and the test compound; the 50% inhibitory concentration (IC50) was calculated based on the inhibitory rate. Inhibitory rate (%) = [1-{(A-C)/(B-C)}] × 100
`CCCC(F)CN1CCC(NC(=O)[C@]2(CC(=O)O)CN(Cc3c(Cl)cccc3C(F)(F)F)C[C@@H]2C)CC1` (stereo partly drawn) [Example 1, 2-[(3S,4R)-1-{[2-chloro-6-(trifluoromethyl)phenyl]methyl}-3-{[1-(2-fluoropentyl)piperidin-4-yl]carbamoyl}-4-methylpyrrolidin-3-yl]acetic acid] gave an IC50 of 13 nM.

`C[C@H]1CN(Cc2c(Cl)cccc2Cl)C[C@@]1(CC(=O)O)C(=O)NC1CCN(CC2CCC(F)(F)CC2)CC1` [Example 2, 2-[(3S,4R)-1-[(2,6-Dichlorophenyl)methyl]-3-({1-[(4,4-difluorocyclohexyl)methyl]piperidin-4-yl}carbamoyl)-4-methylpyrrolidin-3-yl]acetic acid] showed an IC50 of 21 nM.

The compound `C[C@H]1CN(Cc2c(Cl)cccc2C(F)(F)F)C[C@@]1(CC(=O)O)C(=O)NC1CCN(CC2=CCCCC2)CC1` [Example 3, 2-[(3S,4R)-1-{[2-Chloro-6-(trifluoromethyl)phenyl]methyl}-3-{[1-(cyclohex-1-en-1-ylmethyl)piperidin-4-yl]carbamoyl}-4-methylpyrrolidin-3-yl]acetic acid] came in with an IC50 of 4 nM. In the case of `Cc1cccc(Cl)c1CN1C[C@H](C)[C@](CC(=O)O)(C(=O)NC2CCN(CC3=CCCCC3)CC2)C1` [Example 6, 2-[(3S,4R)-1-[(2-Chloro-6-methylphenyl)methyl]-3-{[1-(cyclohex-1-en-1-ylmethyl)piperidin-4-yl]carbamoyl}-4-methylpyrrolidin-3-yl]acetic acid], the IC50 was determined as 11 nM. The compound `C[C@H]1CN(Cc2c(Cl)cccc2C(F)(F)F)C[C@@]1(CC(=O)O)C(=O)NC1CCN(CC2=CCCC2)CC1` [Example 7, 2-[(3S,4R)-1-{[2-Chloro-6-(trifluoromethyl)phenyl]methyl}-3-{[1-(cyclopent-1-en-1-ylmethyl)piperidin-4-yl]carbamoyl}-4-methylpyrrolidin-3-yl]acetic acid] yielded an IC50 of 5 nM.

`C[C@H]1CN(Cc2c(Cl)cccc2Cl)C[C@@]1(CC(=O)O)C(=O)N[C@H]1CCN(CC2=CCCCC2)C1` [Example 9, 2-[(3S,4R)-3-{[(3S)-1-(Cyclohex-1-en-1-ylmethyl)pyrrolidin-3-yl]carbamoyl}-1-[(2,6-dichlorophenyl)methyl]-4-methylpyrrolidin-3-yl]acetic acid] yielded an IC50 of 16 nM. With `CCCCCCN1CCC(NC(=O)[C@]2(CC(=O)O)CN(Cc3c(Cl)cccc3C(F)F)C[C@@H]2C)CC1` [Example 10, 2-[(3S,4R)-1-{[2-Chloro-6-(difluoromethyl)phenyl]methyl}-3-[(1-hexylpiperidin-4-yl)carbamoyl]-4-methylpyrrolidin-3-yl]acetic acid] the figure was 14 nM. For `C[C@H]1CN(Cc2c(Cl)cccc2C(F)F)C[C@@]1(CC(=O)O)C(=O)NC1CCN(CC2=CCCCC2)CC1` [Example 12, 2-[(3S,4R)-1-{[2-Chloro-6-(difluoromethyl)phenyl]methyl}-3-{[1-(cyclohex-1-en-1-ylmethyl)piperidin-4-yl]carbamoyl}-4-methylpyrrolidin-3-yl]acetic acid], the 50% inhibitory concentration (IC50) was 6 nM. Compound `C[C@H]1CN(Cc2c(Cl)cccc2C(F)F)C[C@@]1(CC(=O)O)C(=O)NC1CCN(CC2=CCCC2)CC1` [Example 13, 2-[(3S,4R)-1-{[2-Chloro-6-(difluoromethyl)phenyl]methyl}-3-{[1-(cyclopent-1-en-1-ylmethyl)piperidin-4-yl]carbamoyl}-4-methylpyrrolidin-3-yl]acetic acid] displayed an IC50 of 16 nM. Then `C[C@H]1CN(Cc2c(Cl)cccc2C(F)F)C[C@@]1(CC(=O)O)C(=O)NC1CCN(CC2CCCCC2)CC1` [Example 14, 2-[(3S,4R)-1-{[2-Chloro-6-(difluoromethyl)phenyl]methyl}-3-{[1-(cyclohexylmethyl)piperidin-4-yl]carbamoyl}-4-methylpyrrolidin-3-yl]acetic acid], with 12 nM.

By IC50 is commonly meant the concentration needed to halve the response being measured. A lower IC50 goes with inhibition by little substance.

The values above are taken from patent EP2757103B1, “PYRROLIDINE-3-YLACETIC ACID DERIVATIVE” (Eisai R&D Management Co., Ltd., priority 2011, dated 2013).
